Experimental data published in ChEMBL document CHEMBL6103648, “AI-Driven Discovery of Highly Specific and Efficacious hCES2A Inhibitors for Ameliorating Irinotecan-Triggered Gut Toxicity” (J Med Chem, 2025).
≈ marks a conversion by molar mass, not a printed value. Calls of active or inactive are those of the source. The rule behind the calls is not given here.

Experiments:
[1] = species on record: Homo sapiens; test: Covalent binding affinity to human CES2A Ser228 catalytic site assessed as covalent modification at 10 uM incubated for 4 hrs by nano-LC-MS/MS analysis
[2] = Sub-acute toxicity in C57BL/6J mouse assessed as abnormality in spleen at 100 mg/kg/day, po treated for 14 days consecutively by H and E staining based analysis; assay type: organism-based; settings: in vivo, 336 h, time 14 day
[3] = biological target: Cytochrome P450 2C9 (Homo sapiens, UniProt P11712); test: Inhibition of CYP2C9 in human liver microsomes using diclofenac as substrate upto 10 uM; assay type: ADME, Microsome
Cytochrome P450 2C9, sequence (P11712 whole entry): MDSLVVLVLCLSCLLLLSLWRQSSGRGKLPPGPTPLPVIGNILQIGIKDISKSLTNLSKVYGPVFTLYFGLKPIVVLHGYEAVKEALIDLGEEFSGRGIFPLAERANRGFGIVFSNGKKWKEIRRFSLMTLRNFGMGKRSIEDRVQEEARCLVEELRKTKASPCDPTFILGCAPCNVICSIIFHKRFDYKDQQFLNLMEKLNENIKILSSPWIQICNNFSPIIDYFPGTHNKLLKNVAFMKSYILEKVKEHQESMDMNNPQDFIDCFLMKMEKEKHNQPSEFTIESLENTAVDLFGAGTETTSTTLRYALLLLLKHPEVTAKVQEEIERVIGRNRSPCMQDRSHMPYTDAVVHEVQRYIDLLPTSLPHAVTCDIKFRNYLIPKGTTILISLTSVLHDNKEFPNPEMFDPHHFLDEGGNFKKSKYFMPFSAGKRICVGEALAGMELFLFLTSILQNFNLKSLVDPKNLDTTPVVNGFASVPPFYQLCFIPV

[4] = biological target: Cytochrome P450 2C19 (Homo sapiens, UniProt P33261); test: Inhibition of CYP2C19 in human liver microsomes using omeprazole as substrate upto 10 uM; assay type: ADME, Microsome
Cytochrome P450 2C19, sequence (P33261 whole entry): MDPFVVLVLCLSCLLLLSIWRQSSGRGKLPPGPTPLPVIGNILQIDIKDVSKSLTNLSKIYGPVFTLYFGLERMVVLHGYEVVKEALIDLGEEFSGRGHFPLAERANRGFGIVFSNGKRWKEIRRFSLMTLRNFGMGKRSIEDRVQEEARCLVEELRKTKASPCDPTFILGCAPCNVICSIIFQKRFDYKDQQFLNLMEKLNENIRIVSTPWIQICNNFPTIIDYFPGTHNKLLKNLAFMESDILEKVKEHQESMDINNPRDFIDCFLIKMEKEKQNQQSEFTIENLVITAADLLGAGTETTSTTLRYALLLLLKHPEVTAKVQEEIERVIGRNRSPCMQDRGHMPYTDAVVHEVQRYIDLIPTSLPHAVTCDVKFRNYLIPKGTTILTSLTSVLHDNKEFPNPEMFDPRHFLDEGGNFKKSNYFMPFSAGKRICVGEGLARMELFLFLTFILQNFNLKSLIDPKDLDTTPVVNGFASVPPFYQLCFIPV

[5] = Drug distribution in serum of C57BL/6J mouse at 100 mg/kg, po administered as single dose measured for 0.5 to 3 hrs by UHPLC-Q-Orbitrap HRMS analysis; assay type: ADME, organism-based; settings: in vivo, time 0.5-3 hrs
[6] = biological target: T1, Palmitoleoyl-protein carboxylesterase NOTUM (Homo sapiens, UniProt Q6P988); test: Inhibition of human Notum using OPTS as substrate preincubated for 1 min followed by substrate addition by fluorescence based assay
T1 sequence (Q6P988 whole entry): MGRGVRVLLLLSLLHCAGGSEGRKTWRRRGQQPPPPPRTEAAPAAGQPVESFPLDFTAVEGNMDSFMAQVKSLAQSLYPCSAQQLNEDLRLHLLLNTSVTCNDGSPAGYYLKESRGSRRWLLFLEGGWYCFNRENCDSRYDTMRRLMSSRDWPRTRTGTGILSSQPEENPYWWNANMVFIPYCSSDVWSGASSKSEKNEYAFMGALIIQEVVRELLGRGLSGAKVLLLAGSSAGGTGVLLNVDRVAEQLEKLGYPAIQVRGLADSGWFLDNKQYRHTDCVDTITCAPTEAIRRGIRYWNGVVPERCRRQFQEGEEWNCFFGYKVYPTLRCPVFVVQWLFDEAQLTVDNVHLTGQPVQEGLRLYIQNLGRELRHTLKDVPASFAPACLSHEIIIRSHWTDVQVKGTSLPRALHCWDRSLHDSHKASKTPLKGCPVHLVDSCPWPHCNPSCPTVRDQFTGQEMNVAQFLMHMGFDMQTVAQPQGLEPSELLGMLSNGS

[7] = Inhibition of human CES1A using NLMe as substrate incubated for 3 mins by chemiluminescence analysis
[8] = Sub-acute toxicity in C57BL/6J mouse assessed as body weight change at 100 mg/kg/day, po treated for 14 days consecutively; assay type: organism-based; settings: in vivo, 336 h, time 14 day
[9] = Permeability across basal to apical side in human Caco-2 cells assessed as cumulative penetration amount at 50 uM incubated for 120 mins by UPLC-MS/MS analysis; assay type: ADME, cell-based; settings: caco-2, 2 h
[10] = Sub-acute toxicity in C57BL/6J mouse assessed as abnormality in lung at 100 mg/kg/day, po treated for 14 days consecutively by H and E staining based analysis; assay type: organism-based; settings: in vivo, 336 h, time 14 day
[11] = Efflux ratio of apparent permeability across basal to apical side over apical to basal side in human Caco-2 cells at 100 uM incubated for 120 mins by UPLC-MS/MS analysis; assay type: ADME, cell-based
[12] = Chemical stability in artificial gastrointestinal fluid at 10 uM measured upto 120 mins by UPLC-MS/MS analysis; assay type: physicochemical; settings: 2 h
[13] = Sub-acute toxicity in C57BL/6J mouse assessed as change in mental state at 100 mg/kg/day, po treated for 14 days consecutively; assay type: organism-based; settings: in vivo, 336 h, time 14 day
[14] = system: Mus musculus; test: Inhibition of irinotecan-triggered gut toxicity in C57BL/6J mouse bearing tumor cells assessed as increase in body weight at 25 to 50 mg/kg/day, po treated for 14 days; assay type: functional, organism-based; settings: dose 25-50 mg/kg/day, time 14.0 day
[15] = Inhibition of human CES1A using NLMe as substrate preincubated for 3 mins followed by substrate addition measured after 30 mins by chemiluminescence analysis
[16] = Efflux ratio of apparent permeability across basal to apical side over apical to basal side in human Caco-2 cells at 50 uM incubated for 120 mins by UPLC-MS/MS analysis; assay type: ADME, cell-based
[17] = Drug distribution in jejunum of C57BL/6J mouse at 100 mg/kg, po administered as single dose measured for 0.5 to 3 hrs by UHPLC-Q-Orbitrap HRMS analysis; assay type: ADME, organism-based; settings: in vivo, time 0.5-3 hrs
[18] = Sub-acute toxicity in C57BL/6J mouse assessed as change in AST level at 100 mg/kg/day, po treated for 14 days consecutively; assay type: organism-based; settings: in vivo, 336 h, time 14 day
[19] = Sub-acute toxicity in C57BL/6J mouse assessed as change in TP level at 100 mg/kg/day, po treated for 14 days consecutively; assay type: organism-based; settings: in vivo, 336 h, time 14 day
[20] = Sub-acute toxicity in C57BL/6J mouse assessed as abnormality in liver at 100 mg/kg/day, po treated for 14 days consecutively by H and E staining based analysis; assay type: organism-based; settings: in vivo, 336 h, time 14 day
[21] = Aqueous solubility of compound by UPLC-MS/MS analysis; assay type: physicochemical; settings: buffer
[22] = species on record: Homo sapiens; test: Inhibition of human CES2A assessed as decrease in residual activity measured upto 30 mins; settings: dose <= 1.6 nM
[23] = Sub-acute toxicity in C57BL/6J mouse assessed as change in ALP level at 100 mg/kg/day, po treated for 14 days consecutively; assay type: organism-based; settings: in vivo, 336 h, time 14 day

CCN(C)C(=O)Oc1ccc(C(=O)N2CCC(Cc3ccccc3)CC2)cc1OC
Activity [1]: Active; Compound Exhibited As Covalent Inhibitor
Activity [2]: Non-toxic
inhibition (INH) [3]: Not_active
inhibition (INH) [4]: Not_active
Drug uptake [5]: Not_active
IC50 [6]: > 10 µM
IC50 [7]: 4.4 µM
Activity [8]: Non-toxic
Activity [9]: 4.23 µM
Activity [10]: Non-toxic
efflux ratio at 2 h, 100 µM [11]: 0.66
Stability [12]: Stable
Activity [13]: Non-toxic
inhibition [14]: Active
IC50 [15]: 2.42 µM
efflux ratio at 2 h, 50 µM [16]: 0.67
Drug uptake [17]: Active
Activity [18]: Non-toxic
Activity [19]: Non-toxic
Activity [20]: Non-toxic
solubility [21]: 32 µg/mL (≈ 78 µM)
inhibition [22]: Dose-dependent-effect
Activity [23]: Non-toxic
